Data on one molecule can be found in ChEMBL document CHEMBL6153118, “Structure Optimization of Natural Product Catalpol to Obtain Novel and Potent Analogs against Heart Failure” (J Med Chem, 2025).

Assay [1] deals with H9c2. Nature of the assay: Cytoprotective activity against OGD-induced myocardial ischemic injury in rat H9c2 cells assessed as decrease in ROS level at 5 to 50 uM preincubated for 12 hrs followed by exposure to OGD condition for 3 hrs by DCFH-DA probe based analysis. It is filed as functional, cell-based. The note with it: dose 5-50 µM, time 15.0 hrs.
Assay [2] has as its system Mus musculus. As to the kind of experiment: Inhibition of cardiomyocyte hypertrophy in ISO-induced heart failure C57BL/6J mouse at 5 to 20 mg/kg/day, po for 14 days. It is filed as functional, organism-based. The following applies: dose 5-20 mg/kg/day, time 14.0 day.
Assay [3] deals with H9c2. Nature of the assay: Cytoprotective activity against OGD-induced myocardial ischemic injury in rat H9c2 cells assessed as decrease in cell death at 5 to 50 uM preincubated for 12 hrs followed by exposure to OGD condition for 3 hrs by crystal violet staining based analysis. It is filed as functional. The note with it: dose 5-50 µM, time 15.0 hrs.
In assay [4] the test system is Mus musculus. As to the kind of experiment: Improvement in motor ability in ISO-induced heart failure C57BL/6J mouse assessed as increase in grip strength at 5 to 20 mg/kg/day, po for 14 days. It is filed as functional, organism-based. The note with it: dose 5-20 mg/kg/day, time 14.0 day.
Assay [5] relates to Mus musculus. As to the kind of experiment: Cardioprotective activity in ISO-induced heart failure C57BL/6J mouse assessed as fractional shortening in heart at 5 mg/kg/day, po for 14 days by echocardiography (reference value: 24.49 +/- 1.49 %). It is filed as functional. The note with it: time 14 day.
Assay [6] has as its system Mus musculus. Nature of the assay: Cardioprotective activity in ISO-induced heart failure C57BL/6J mouse assessed as fractional shortening in heart at 20 mg/kg/day, po for 14 days by echocardiography (reference value: 24.49 +/- 1.49 %). It is filed as functional. The note with it: time 14 day.
Assay [7] relates to H9c2. Nature of the assay: Cytoprotective activity against OGD-induced myocardial ischemic injury in rat H9c2 cells assessed as cell viability at 50 uM preincubated for 12 hrs followed by exposure to OGD condition for 3 hrs by CCK8 assay (reference value: 49.23 to 50.05 %). It is filed as functional. The following applies: time 15 hrs, read-out: Activity.
In assay [8] the test system is Mus musculus. Nature of the assay: Improvement in motor ability in ISO-induced heart failure C57BL/6J mouse assessed as increase in time of remote motion with rotarod at 5 to 20 mg/kg/day, po for 14 days. The note with it: dose 5-20 mg/kg/day, time 14.0 day. It is filed as functional, organism-based. For orientation: In the rotarod test animals must keep their balance on a rotating rod.

The subject of assay [9] is Mus musculus. As to the kind of experiment: Inhibition of cardiac fibrosis in ISO-induced heart failure C57BL/6J mouse at 5 to 20 mg/kg/day, po for 14 days. It is filed as functional, organism-based. The note with it: dose 5-20 mg/kg/day, time 14.0 day.
In assay [10] the test system is H9c2. As to the kind of experiment: Cytoprotective activity against OGD-induced myocardial ischemic injury in rat H9c2 cells assessed as decrease in LDH level at 5 to 50 uM preincubated for 12 hrs followed by exposure to OGD condition for 3 hrs by UV absorption analysis. It is filed as functional, cell-based. The note with it: dose 5-50 µM, time 15.0 hrs.
Assay [11] deals with H9c2. Nature of the assay: Cytoprotective activity against OGD-induced myocardial ischemic injury in rat H9c2 cells assessed as cell viability at 5 uM preincubated for 12 hrs followed by exposure to OGD condition for 3 hrs by CCK8 assay (reference value: 49.23 to 50.05 %). The note with it: time 15 hrs, read-out: Activity. It is filed as functional. For orientation: Formazan colour is commonly taken as a measure of viable cells.

In assay [12] the test system is Mus musculus. As to the kind of experiment: Cardioprotective activity in ISO-induced heart failure C57BL/6J mouse assessed as ejection fraction in heart at 20 mg/kg/day, po for 14 days by echocardiography (reference value: 49.55 +/- 2.41 %). It is filed as functional. The note with it: time 14 day.
The next assay has as its system Cardiac muscle cell. Nature of the assay: Cytoprotective activity against OGD-induced myocardial ischemic injury in neonatal rat primary cardiomyocytes assessed as decrease in cellular damage at 1 uM preincubated for 12 hrs followed by exposure to OGD condition for 3 hrs. It is filed as functional, cell-based. The note with it: time 15.0 hrs.
Assay [13] concerns Mus musculus. Nature of the assay: Cardioprotective activity in ISO-induced heart failure C57BL/6J mouse assessed as ejection fraction in heart at 5 mg/kg/day, po for 14 days by echocardiography (reference value: 49.55 +/- 2.41 %). The following applies: time 14 day. It is filed as functional.

The source made the active and inactive calls. The rule behind the calls is not given here.

For the molecule `CC(C)(C)c1ccc(C(=O)NC[C@]23O[C@H]2[C@@H](O)[C@@H]2C=CO[C@@H](O[C@@H]4O[C@H](CO)[C@@H](O)[C@H](O)[C@H]4O)[C@@H]23)cc1`, the result in the assay on H9c2 [1], in the assay on Mus musculus [4], in the assay on Mus musculus [8], in the assay with H9c2 [10] and in the assay with Cardiac muscle cell was Active. Also, in the assay with Mus musculus [2], the inhibition entry is “inactive”. Also, the Activity result is “Active; Exhibited Superior Protective Efficacy Than Catal-Pol” in the assay on H9c2 [3]; 28.23% in the assay on Mus musculus [5]; 27.5% in the assay on Mus musculus [6]; 53.73% in the assay with Mus musculus [12]; 55.41% with Mus musculus [13]. Further, the viability at 50 µM with H9c2 [7] was 70.9%. The inhibition entry in the assay with Mus musculus [9] is “Active”. The viability at 5 µM in the assay with H9c2 [11] was 60.7%.
